Earlier results, collected in patent US20250360058A1, “IN SITU FORMED CATIONIC ACP GEL FOR TREATMENT OF TOOTH […]” (KONINKLIJKE PHILIPS N.V., priority 2022, published 2025).

Conditions: between pH 6.5-8.0

Structure (SMILES): NCCCC[C@H](N)C(=O)O [Lysine, lysine]
- positively charged basic side chains: 100%

Structure (SMILES): N=C(N)NCCC[C@H](N)C(=O)O [Arginine, arginine]
- positively charged basic side chains: 100%
